According to patent publication US20040266732A1, “Therapeutic agents, methods, and treatments” (priority 2002, published 2004):

What was measured:
Experiment in all cases: NCI 60 cell-line test
Format in all cases: cell-based, human
HOP-92 = tested on: HOP-92
Protocol: (§1) Methodology: The NCI conducted a test of the MT103 drug against 60 human cell lines, with a minimum of five concentrations of MT103 at 10-fold dilutions. A 48 hour continuous drug exposure was used, and a sulforhodamine B (SRB) protein assay was used to estimate cell viability and growth. The human tumor cell lines of the cancer screening panel were grown in RPMI 1640 medium containing 5% fetal bovine serum and 2 mM L-glutamine. Cells were inoculated into 96 well microtiter plates in 100 μL at plating densities ranging from 5,000 to 40,000 cells/well depending on the doubling time of individual cell lines. After cell inoculation, the microtiter plates are incubated at 37° C., 5% CO2, 95% air, and 100% relative humidity for 24 h prior to addition of experimental drugs.
(§2) After 24 h, two plates of each cell line were fixed in situ with TCA, to represent a measurement of the cell population for each cell line at the time of drug addition (Tz). MT103 was solubilized in dimethyl sulfoxide at 400-fold the desired final maximum test concentration and stored frozen prior to use. At the time of drug addition, an aliquot of frozen concentrate was thawed and diluted to twice the desired final maximum test concentration with complete medium containing 50 μg/ml gentamicin. Additional four, 10-fold or ½ log serial dilutions were made to provide a total of five drug concentrations plus control. Aliquots of 100 μl of these different drug dilutions were added to the appropriate microtiter wells already containing 100 μl of medium, resulting in the required final drug concentrations.
(§3) Following drug addition, the plates were incubated for an additional 48 h at 37° C., 5% CO2, 95% air, and 100% relative humidity. For adherent cells, the assay was terminated by the addition of cold TCA. Cells were fixed in situ by the gentle addition of 50 μl of cold 50% (w/v) TCA (final concentration, 10% TCA) and incubated for 60 minutes at 4° C. The supernatant was discarded, and the plates were washed five times with tap water and air dried. Sulforhodamine B (SRB) solution (100 μl) at 0.4% (w/v) in 1% acetic acid was added to each well, and plates were incubated for 10 minutes at room temperature. After staining, unbound dye was removed by washing five times with 1% acetic acid and the plates were air-dried. Bound stain was subsequently solubilized with 10 mM trizma base, and the absorbance was read on an automated plate reader at a wavelength of 515 nm. For suspension cells, the methodology was the same except that the assay was terminated by fixing settled cells at the bottom of the wells by gently adding 50 μl of 80% TCA (final concentration, 16% TCA). Using the seven absorbance measurements (time zero, (Tz), control growth, (C), and test growth in the presence of drug at the five concentration levels (Ti)), the percentage growth was calculated at each of the drug concentrations levels. Percentage growth inhibition was calculated as:
(§4) [(Ti-Tz)/(C-Tz)]×100 for concentrations for which Ti>/=Tz
(§5) [(Ti-Tz)/Tz]×100 for concentrations for which Ti<Tz.
(§6) Three dose response parameters were calculated for each experimental agent. Growth inhibition of 50% (GI50) was calculated from [(Ti-Tz)/(C-Tz)]×100=50, which is the drug concentration resulting in a 50% reduction in the net protein increase (as measured by SRB staining) in control cells during the drug incubation. The drug concentration resulting in total growth inhibition (TGI) was calculated from Ti=Tz. The LC50 (concentration of drug resulting in a 50% reduction in the measured protein at the end of the drug treatment as compared to that at the beginning) indicating a net loss of cells following treatment was calculated from [(Ti-Tz)/Tz]×100=−50. Values were calculated for each of these three parameters if the level of activity is reached; however, if the effect was not reached or was exceeded, the value for that parameter was expressed as greater or less than the maximum or minimum concentration tested.

SK-MEL-2 = SK-MEL-2 (Melanoma)
Protocol: as §1, §2, §3, §4, §5, §6

U251 = U251 (CNS Cancer)
Protocol: as §1, §2, §3, §4, §5, §6

SNB-75 = SNB-75 (CNS Cancer)
Protocol: as §1, §2, §3, §4, §5, §6

OVCAR-3 = OVCAR-3 (Ovarian Cancer)
Protocol: as §1, §2, §3, §4, §5, §6

ACHN = ACHN (Renal Cancer)
Protocol: as §1, §2, §3, §4, §5, §6

TK-10 = TK-10 (Renal Cancer)
Protocol: as §1, §2, §3, §4, §5, §6

HCT-116 = HCT-116 (Colon Cancer)
Protocol: as §1, §2, §3, §4, §5, §6

LOX IMVI = LOX IMVI (Melanoma)
Protocol: as §1, §2, §3, §4, §5, §6

UO-31 = UO-31 (Renal Cancer)
Protocol: as §1, §2, §3, §4, §5, §6

OVCAR-8 = OVCAR-8 (Ovarian Cancer)
Protocol: as §1, §2, §3, §4, §5, §6

CCRF-CEM = CCRF-CEM (Leukemia)
Protocol: as §1, §2, §3, §4, §5, §6

HOP-62 = HOP-62 (Non-Small Cell Lung Cancer)
Protocol: as §1, §2, §3, §4, §5, §6

EKVX = EKVX (Non-Small Cell Lung Cancer)
Protocol: as §1, §2, §3, §4, §5, §6

SF-295 = SF-295 (CNS Cancer)
Protocol: as §1, §2, §3, §4, §5, §6

[1] = read-out: LC50 (the source's name)

In the case of CC1(C)C2CC[C@@]1(CS(=O)(=O)N(C1CCCCC1)C1CCCCC1)C(O)C2 (stereo partly shown) [MT103], the TGI (HOP-92; HOP-92 (Non-Small Cell Lung Cancer)) is reported as 3.16E−05, the IC50 (HOP-92; HOP-92 (Non-Small Cell Lung Cancer), read-out: G150) is reported as 2.75 µM and the CC50 (HOP-92; HOP-92 (Non-Small Cell Lung Cancer), read-out: LC50 (the source's name)) is reported as over 100 µM. The “−logGI50 value” (HOP-92; HOP-92, as tested by the NCI, FIG. 1) was 5.6, the TGI (SK-MEL-2) was 6.77E−05 and the IC50 (SK-MEL-2; read-out: G150) was 26 µM. For the same compound, the CC50 (SK-MEL-2; [1]) was over 100 µM, the TGI (U251) was over 1.00E−04 and the IC50 (U251; read-out: G150) was 28.7 µM. The CC50 (U251; [1]) was over 100 µM, the LC50 (concentration killing 50% of tumour cells) (SNB-75) was over 100 µM and the TGI (SNB-75) was 8.83E−05. For the same compound, the IC50 (SNB-75; read-out: G150) was 19.5 µM, the TGI (OVCAR-3) was 6.30E−05 and the IC50 (OVCAR-3; read-out: G150) was 23 µM. It also gave a CC50 (OVCAR-3; [1]) of over 100 µM, a TGI (ACHN) of over 1.00E−04 and an IC50 (ACHN; read-out: G150) of 23.8 µM. The CC50 (ACHN; [1]) was over 100 µM, the TGI (TK-10) was 9.02E−05 and the IC50 (TK-10; read-out: G150) was 21.6 µM. The CC50 (TK-10; [1]) was over 100 µM, the TGI (HCT-116) was over 1.00E−04 and the IC50 (HCT-116; read-out: G150) was 43.8 µM. For the same compound, the CC50 (HCT-116; [1]) was over 100 µM, the TGI (LOX IMVI) was 3.95E−05 and the IC50 (LOX IMVI; read-out: G150) was 19 µM. For the same compound, the CC50 (LOX IMVI; [1]) was 82.3 µM, the TGI (UO-31) was 8.94E−05 and the IC50 (UO-31; read-out: G150) was 28 µM. For the same compound, the CC50 (UO-31; [1]) was over 100 µM, the TGI (OVCAR-8) was over 1.00E−04 and the IC50 (OVCAR-8; read-out: G150) was 25.3 µM. For the same compound, the CC50 (OVCAR-8; [1]) was over 100 µM, the TGI (CCRF-CEM) was over 1.00E−04 and the IC50 (CCRF-CEM; read-out: G150) was 29.7 µM. The CC50 (CCRF-CEM; [1]) was over 100 µM, the TGI (HOP-62) was over 1.00E−04 and the IC50 (HOP-62; read-out: G150) was 57.5 µM. It also gave a CC50 (HOP-62; [1]) of over 100 µM, a TGI (EKVX) of 9.83E−05 and an IC50 (EKVX; read-out: G150) of 31.3 µM. It also gave a CC50 (EKVX; [1]) of over 100 µM, a TGI (SF-295) of over 1.00E−04 and an IC50 (SF-295; read-out: G150) of 22.6 µM. It also gave a CC50 (SF-295; [1]) of over 100 µM.
